Structures can show the parent of a compound that is named as a salt. Where two headings read alike, the source gives them in different places.
How the values were obtained:
[1] = Vogel conflict (punished drinking) model of anxiety
[2] = reported; models not named; cited from earlier work
[3] = isethionate salt, EP-A-0 247 892, cited from earlier work
[4] = Orientative acute oral toxicity (LD50) in rats; conditions: rat, in vivo, 50% survive 10 days after administration
Excerpt: (§1) The present compounds are non-toxic at prophylactically and therapeutically effective doses. […] These are the dose levels at which 50% of the animals survive 10 days after administration of compound A.

mice = assay: Orientative acute oral toxicity (LD50) in mice; type: in vivo; conditions: 50% survive 10 days after administration
Excerpt: as §1

[5] = tested on: release of excitatory amino acids, principally glutamate; conditions: at anticonvulsant brain concentrations; Leach et al 1986; Zhu and McGee 1990; cited from earlier work
[6] = tested on: voltage-sensitive sodium channels; conditions: Lang et al 1993; Lees and Leach 1993; cited from earlier work
[7] = Rattus norvegicus, po, 1 h, read-out: number of licks, percentage of vehicle control responding
[8] = dose-response across tested doses, significance p<0.05, Mann-Whitney U-test
[9] = Rattus norvegicus, po, 1 h, read-out: number of licks, percentage of vehicle control responding, 20 mg/kg p.o., one hour before test, vehicle=100% (Table 3)
[10] = Rattus norvegicus, po, 1 h, read-out: number of licks, percentage of vehicle control responding, 40 mg/kg p.o., one hour before test, vehicle=100% (Table 3)
[11] = Rattus norvegicus, po, 1 h, read-out: number of licks, percentage of vehicle control responding, 80 mg/kg p.o., one hour before test, vehicle=100% (Table 3)
[12] = Rattus norvegicus, 1 h, read-out: number of licks, percentage of vehicle control responding
[13] = Rattus norvegicus, sc, 20 min, read-out: number of licks, percentage of vehicle control responding
[14] = Rattus norvegicus, po, 1 h, read-out: number of licks, percentage of vehicle control responding, 160 mg/kg p.o., one hour before test, vehicle=100% (Table 3)

`CN1[C@@H]2CC[C@H]1C[C@@H](OC(=O)c1cc(Cl)cc(Cl)c1)C2` [Bemesetron] gave a response vs control in vivo at 0.0001 mg/kg [1, 7] of 89%, a response vs control in vivo at 0.001 mg/kg [1, 7] of 129% and a response vs control in vivo at 0.01 mg/kg [1, 7] of 156%. The response vs control in vivo at 0.1 mg/kg [1, 7] was 116%, the “effect on punished responding (in words)” value [1, 8] was “lack of any significant anxiolytic effect” and the “anxiolytic effects in other animal models” value [2] was “reported to exhibit anxiolytic effects in other animal models”.

With `NC(=O)N1c2ccccc2C=Cc2ccccc21` [Carbamazepine] the “effect on punished responding (in words)” value ([1]; 5.0 mg/kg p.o.) was “no effect”, the “effect on punished responding (in words)” value ([1]; 20 mg/kg p.o.) was “non-significant increase in PR” and the response vs control in vivo at 5 mg/kg ([1]; Rattus norvegicus, po, 1 h, read-out: number of licks, percentage of vehicle control responding, 5.0 mg/kg p.o., one hour before test, vehicle=100% (Table 2)) was 87%. For the same molecule, the response vs control in vivo at 10 mg/kg ([1]; Rattus norvegicus, po, 1 h, read-out: number of licks, percentage of vehicle control responding, 10 mg/kg p.o., one hour before test, vehicle=100% (Table 3)) was 154%, the response vs control in vivo at 20 mg/kg ([1]; Rattus norvegicus, po, 1 h, read-out: number of licks, percentage of vehicle control responding, 20.0 mg/kg p.o., one hour before test, vehicle=100% (Table 2)) was 161% and the response vs control in vivo at 20 mg/kg [1, 9] was 206%. For the same molecule, the response vs control in vivo at 40 mg/kg [1, 10] was 219%, the response vs control in vivo at 80 mg/kg [1, 11] was 309% and the “effect on punished responding (in words)” value [1, 8] was “dose-related, significant increase in punished responding”.

With `Nc1nnc(-c2cccc(Cl)c2Cl)c(N)n1` [Compound A isethionate, 3,5-diamino-6-(2,3-dichlorophenyl)-1,2,4-triazine isethionate] the other behavioural changes ([1]; 10, 20, 40 mg/kg base equivalent p.o.) was “no other behavioural changes were observed”, the response vs control in vivo at 10 mg/kg [1, 12] was 92% and the response vs control in vivo at 20 mg/kg [1, 12] was 165%. The response vs control in vivo at 40 mg/kg [1, 12] was 208%, the “effect on punished responding (in words)” value [1, 8] was “dose-related increase in punished responding at 20 and 40 mg/kg, that at the latter dose being significant” and the solubility [3] was “good solubility”. For the same molecule, the solubility ([3]; listed as salt with isethionic acid) was “particularly good solubility”.

For `Nc1nnc(-c2cccc(Cl)c2Cl)c(N)n1` [Compound A, 3,5-Diamino-6-(2,3-dichlorophenyl)-1,2,4-triazine], the LD50 at 240 h [4] is listed as 640 mg/kg, the “acute oral toxicity (LD50)” value (mice) is listed as 250 mg/kg and the “inhibition of release of excitatory amino acids, principally glutamate” value [5] is listed as “inhibit the release of excitatory. amino acids, principally glutamate”. The “block of voltage-sensitive sodium channels” value [6] was “use-dependent block of voltage-sensitive sodium channels”.

For `CN1C(=O)CN=C(c2ccccc2)c2cc(Cl)ccc21` [Diazepam, 7-chloro-1,3-dihydro-1-methyl-5-phenyl-2H-1,4-benzodiazepin-2-one], the ataxia ([1]; 1.0 mg/kg s.c.) was “accompanied by ataxia”, the response vs control in vivo at 0.5 mg/kg [1, 13] was 162% and the response vs control in vivo at 1 mg/kg [1, 13] was 296%. The “effect on punished responding (in words)” value [1, 8] was “dose-related increase in punished responding (PR) at 0.5 and 1.0 mg/kg. This effect was large and significant”.

In the case of `CCC1(C)CC(=O)NC1=O` (stereo not drawn) [Ethosuximide], the response vs control in vivo at 40 mg/kg [1, 10] is reported as 64%, the response vs control in vivo at 80 mg/kg [1, 11] is reported as 133% and the response vs control in vivo at 160 mg/kg [1, 14] is reported as 61%. For the same molecule, the response vs control in vivo at 320 mg/kg ([1]; Rattus norvegicus, po, 1 h, read-out: number of licks, percentage of vehicle control responding, 320 mg/kg p.o., one hour before test, vehicle=100% (Table 3)) was 96%.

`Cc1nccn1CC1CCc2c(c3ccccc3n2C)C1=O` (stereo not drawn) [Ondansetron hydrochloride] showed a response vs control in vivo at 0.0001 mg/kg ([1]; Rattus norvegicus, po, 1 h, read-out: number of licks, percentage of vehicle control responding, 0.1 μg/kg p.o., one hour before test, vehicle=100% (Table 3)) of 68%, a response vs control in vivo at 0.001 mg/kg ([1]; Rattus norvegicus, po, 1 h, read-out: number of licks, percentage of vehicle control responding, 1.0 μg/kg p.o., one hour before test, vehicle=100% (Table 3)) of 80% and a response vs control in vivo at 0.01 mg/kg ([1]; Rattus norvegicus, po, 1 h, read-out: number of licks, percentage of vehicle control responding, 10 μg/kg p.o., one hour before test, vehicle=100% (Table 3)) of 70%. The response vs control in vivo at 0.1 mg/kg ([1]; Rattus norvegicus, po, 1 h, read-out: number of licks, percentage of vehicle control responding, 100 μg/kg p.o., one hour before test, vehicle=100% (Table 3)) was 87%, the “effect on punished responding (in words)” value [1, 8] was “lack of any significant anxiolytic effect” and the “anxiolytic effects in other animal models” value [2] was “reported to exhibit anxiolytic effects in other animal models”.

With `O=C1NC(=O)C(c2ccccc2)(c2ccccc2)N1` [Phenytoin sodium] the “effect on punished responding (in words)” value ([1]; 10 or 40 mg/kg p.o.) was “no effect on PR”, the response vs control in vivo at 10 mg/kg ([1]; Rattus norvegicus, po, 1 h, read-out: number of licks, percentage of vehicle control responding, 10.0 mg/kg p.o. (parent acid equivalent), one hour before test, vehicle=100% (Table 2)) was 121% and the response vs control in vivo at 20 mg/kg [1, 9] was 101%. The response vs control in vivo at 40 mg/kg ([1]; Rattus norvegicus, po, 1 h, read-out: number of licks, percentage of vehicle control responding, 40.0 mg/kg p.o. (parent acid equivalent), one hour before test, vehicle=100% (Table 2)) was 114%, the response vs control in vivo at 40 mg/kg [1, 10] was 135% and the response vs control in vivo at 80 mg/kg [1, 11] was 220%. The response vs control in vivo at 160 mg/kg [1, 14] was 173%.

For `CCCC(CCC)C(=O)O` [Sodium valproate], the response vs control in vivo at 40 mg/kg [1, 7] was 79%, the response vs control in vivo at 80 mg/kg [1, 7] was 108% and the response vs control in vivo at 160 mg/kg [1, 7] was 151%. It also gave a response vs control in vivo at 320 mg/kg [1, 7] of 261%.

Reference: US5658905A, “Use of triazine compounds as anxiolytics” (priority 1993, dated 1997)
